Measured values from US9095565B2, “Methods for treating blood disorders” (Phoenicia Biosciences, Inc., priority 2006, dated 2015).

Experiments:
γ globin promoter = test: β/γ-globin promoter driven reporter gene assay; type: cell-based; settings: Table 2
[1] = test system: Erythroid colonies (BFU-E); test: Experiment 2: erythroid colonies (BFU-E) cultured from patients with beta thalassemia; type: cell-based, human; settings: optimal panel of growth factors
Description: (§1) Erythroid burst-forming units (BFU-E) (erythroid progenitors) and colony-forming units granulocyte-macrophage (CFU-GM) (myeloid colonies) were cultured in semi-solid or in two-phase suspension media, with or without hematopoietic growth factors at high levels (e.g., erythropoietin at 3 U/ml) or reduced levels (BFU-E cell proliferation was evaluated by enumeration in colonies developing in the presence of reduced amounts of erythropoietin (0.5 U/ml) rather than 3 U (or 3000 mU)/ml, which is standard for these experimental systems), from cord blood or the peripheral blood of several types of humans. Experiments were carried out on samples derived from 1) β-thalassemia patients who expressed variable levels of fetal globin at baseline (and in untreated control cultures) and represent a variety of potential individual responses, 2) from normal umbilical cord blood samples, which express 40-50% fetal globin at baseline (and in untreated control cultures), 3) from CD34+ cells isolated from normal adult peripheral blood, which expressed low levels of fetal globin in untreated control cultures and at baseline; and 4) from peripheral blood of patients with sickle cell disease who were receiving treatment with hydroxyurea. These biological samples provide a range of potential difficulty in stimulating fetal globin expression in human patients.
Erythroid colonies were cultured from patients with beta thalassemia, either without any test compounds (Control), only an optimal panel of hematopoietic growth factors, or with one of the test compounds M, P, T, 2-methyl-1-benzofuran-4-carboxylic acid, V, W, X, Y, AK, AC, or AI. […] Colony numbers were increased above the control cultures (% BFU-E/Control) by anywhere from 25% to 230%. Each of the listed test compounds was tested in at least 5 different patients' blood and the differences were statistically significant.

BFU-E = BFU-E cultured from cord blood; type: cell-based, human
Description: as §1
In a related study, BFU-E cultured from cord blood, was tested with or without compound M, P, R, T, W, Y, Z, AI, F, or 3-(5-chlorothien-3-yl)acrylic acid.

myeloid colonies = test: Experiment 3: myeloid colonies in cord blood cultured without added growth factors; type: cell-based, human; settings: no added growth factors
Description: as §1
Control colonies were established in cultures with no added growth factors to support myelopoiesis, in Iscove's Modified Dulbecco's Media (IMDM) methylcellulose media with charcoal-absorbed fetal bovine serum, beta mercaptoethanol, BSA.

γ-globin mRNA = γ-globin mRNA by RT-PCR in erythroid colonies cultured from cord blood; type: cell-based, human
Description: γ-globin mRNA was analyzed in control and treated erythroid colonies cultured from cord blood, by RT-PCR.

γ-globin gene reporter = test: Related study: relative luciferase reporter gene induction; type: cell-based
Description: (§2) In a related study, the relative luciferase reporter gene induction, γ-globin gene induction, and F cell production was tested for several of the candidate compounds. The relative in vitro γ-globin gene reporter stimulation for the tested compounds was as follows: compound P>M>W=R=Y. The relative in vitro γ-globin gene induction for the tested compounds was as follows: P>R=M>Y>W>. The relative in vitro F-cell production was as follows: W>Y>R>M>P. The relative potency for F-cell production was as follows: R>M>Y>P>W.

γ-globin gene = test: Related study: relative in vitro γ-globin gene induction; type: cell-based
Description: as §2

F-cell = test: Related study: in vitro F cell production; type: cell-based
Description: as §2

[2] = test system: cells expressing fetal globin (F-cells); test: Experiment 1: proportion of F-cells in hematopoietic colonies by FACScan; type: cell-based, human; settings: same low concentrations as for fetal globin mRNA induction
Description: as §1
Hematopoietic colonies were enumerated with or without (+/−) the test compounds, and compared to colonies which developed in the presence of hematopoietic growth factors alone from the same subject (untreated control colonies), and proportions of cells expressing fetal globin (F-cells) were analyzed by FACScan analysis.

fetal globin mRNA = test: Fetal globin induction in phlebotomized anemic baboons; type: in vivo, baboon; settings: Baboon 5002, 40 mg/kg
Description: Juvenile baboons were catheterized with venous and arterial catheters, and were phlebotomized a set amount of blood daily to maintain anemia with a hemoglobin level of 7.0-7.5 g/dl, from a baseline normal hemoglobin level of (12-13 g/dl). Normal saline was infused to replace the amount of blood withdrawn. This degree of phlebotomy exchanges the blood volume every 10-20 days.
Fetal globin mRNA was analyzed at baseline anemia before and following administration of test compounds. Globin chain protein synthesis confirmed the mRNA findings.
Following establishment of the stable level of anemia, a test compound was administered once/day, either intravenously or orally, and blood was withdrawn through the arterial catheter for analysis of globin mRNA or for analysis of the test compound in the plasma by HPLC-MS. Pharmacokinetic profiles were established from the plasma levels and oral bioavailability (comparing area under the curve between IV and oral plasma levels) was determined for the test compounds.
In anemic Baboon 5002, baseline fetal globin mRNA, assayed by RNAse protection, was 26% of non-alpha globin. With treatment with compound Y at 5 mg/kg/dose, fetal globin mRNA increased to 48% of non-alpha globin, an 85% increase over the baseline level. Treatment with compound AK at 50 mg/kg induced a 51% fetal globin mRNA increase, a 96% increase over the baseline level. […] The human equivalent dose is 20% of these doses, or 1 mg/kg, 10 mg/kg, or 8 mg/kg respectively. Thus, these 3 compounds are highly suitable for pharmaceutical compositions at doses that human patients can readily tolerate.

Erythroid colonies = test: Experiment 6: erythroid colony growth from sickle cell patients receiving hydroxyurea; type: cell-based, human
Description: Erythroid colonies from the peripheral blood of 4 patients with sickle cell disease who were receiving treatment with Hydroxyurea (HU), a chemotherapeutic agent which suppresses marrow growth and reduces red blood cell production, were cultured alone or with added test compounds M, P, 2-methyl-1-benzofuran-4-carboxylic acid, V, W, Y (racemic mixture) or AI. L-arginine was added as a neutral control, and had no effect on numbers of erythroid colonies.
2-methyl-1-benzofuran-4-carboxylic acid and compound V require additional samples for statistical evaluation, but had positive effects in 3/3 different patients' cultures. These findings indicate that the test compounds stimulate erythroid cell production particularly in conditions of anemia and bone marrow suppression.

Compound	% γ globin promoter induction (above untreated control) (γ globin promoter)	number of erythroid colonies compared to matched control cultures [1]	numbers of BFU-E colonies compared to controls (BFU-E)	production of myeloid colonies compared to untreated control (myeloid colonies)	proportion of F-cells above the percentage in untreated controls [2]	effect on numbers of erythroid colonies compared to control (Erythroid colonies)	other results
CCOc1ccc(C(=O)O)cc1 [AI]	** (‘**’ indicates a 100%-200% increase)	increased the number of colonies	increased numbers of colonies	stimulated production of myeloid colonies			
CCC(Nc1ncnc2ccccc12)C(=O)O (centres unmarked) [Compound M]	** (‘**’ indicates a 100%-200% increase)	increased the number of colonies	increased numbers of colonies	stimulated production of myeloid colonies	significant increases		Concentration required (γ-globin mRNA; increase in fetal globin mRNA, erythroid colonies from cord blood): 5 µM; No. of Positive responses (γ-globin mRNA; positive cultures/cultures tested): 4/6; relative in vitro γ-globin gene reporter stimulation (rank order) (γ-globin gene reporter): P>M>W=R=Y; relative in vitro γ-globin gene induction (rank order) (γ-globin gene): P>R=M>Y>W; relative in vitro F-cell production (rank order) (F-cell): W>Y>R>M>P; relative potency for F-cell production (rank order) (F-cell): R>M>Y>P>W; increase over the baseline level of fetal globin mRNA (fetal globin mRNA): 257%; fetal globin mRNA (% of non-alpha globin) (fetal globin mRNA; baseline 26%): 67%
NC(=O)NO [Hydroxyurea]						decreased numbers of erythroid colonies	
N=C(N)NCCC[C@H](N)C(=O)O [L-arginine]						no effect	
O=C(O)c1ccc(-c2ccccc2[N+](=O)[O-])o1 [X]	** (‘**’ indicates a 100%-200% increase)	increased the number of colonies		stimulated production of myeloid colonies	significant increases		
